Experimental findings from the Kinase Knowledgebase extract (Sharma et al. 2016) are described below.

The structures appear in SMILES notation.

Test [1] has as its target CDK2 (human) (UniProt P24941). Briefly: Enzyme Assay.
In test [2] the target is CDK2 (human) (UniProt P24941). Briefly: Enzyme Assay. This is another data set of the same source.

The Kd is the equilibrium constant for the complex coming apart. A higher Kd goes with a looser complex.

As to `NS(=O)(=O)Cc1cccc(Nc2ncnc(N3CCC[C@@H]3COCc3ccccc3)n2)c1`, the Kd in test [1] is > 10000 nM.

In turn, `NS(=O)(=O)Cc1cccc(Nc2ncnc(N3Cc4ccncc4C3)n2)c1` registered a Kd in test [1] of 100 to 1000 nM.

For the molecule `NS(=O)(=O)Cc1cccc(Nc2ncnc(N3CCCc4ccccc43)n2)c1`, in test [1], the dissociation constant Kd was 100 to 1000 nM.

For `NS(=O)(=O)Cc1cccc(Nc2ncnc(N3CCc4ncsc4C3)n2)c1`, the Kd in test [1] and in test [2] was < 100 nM each time.

For the molecule `CN(C)CCC1CCCCN1c1ncnc(Nc2cccc(CS(N)(=O)=O)c2)n1` (configuration not stated), in test [2], the Kd was > 10000 nM.

In the case of `COC[C@@H]1CCCN1c1ncnc(Nc2cccc(CS(N)(=O)=O)c2)n1`, the Kd in test [1] is > 10000 nM.

For the molecule `NS(=O)(=O)Cc1cccc(Nc2ncnc(N3CCc4nc[nH]c4C3)n2)c1`, in test [1], the equilibrium dissociation constant (Kd) is < 100 nM.

Turning to `NS(=O)(=O)Cc1cccc(Nc2ncnc(N3CCCCC3)n2)c1`, the Kd in test [1] and in test [2] was > 10000 nM in each case.

In test [2], `NS(=O)(=O)Cc1cccc(Nc2ncnc(N3Cc4cn[nH]c4C3)n2)c1` came in with a Kd of 100 to 1000 nM.

Consider `COC[C@H]1CCCCN1c1ncnc(Nc2cccc(CS(N)(=O)=O)c2)n1`, for which the Kd in test [1] was > 10000 nM.

`NS(=O)(=O)Cc1cccc(Nc2ncnc(N3CCC[C@H]3CO)n2)c1`: in test [1], the dissociation constant Kd was > 10000 nM.

Take `NS(=O)(=O)Cc1cccc(Nc2ncnc(N3CCCn4nccc43)n2)c1`: the Kd in test [1] and in test [2] was < 100 nM throughout.

Regarding `COC[C@H]1CCN1c1ncnc(Nc2cccc(CS(N)(=O)=O)c2)n1`, the Kd in test [1] is > 10000 nM.

With `NS(=O)(=O)Cc1cccc(Nc2ncnc(N3CCCC3c3ccccc3)n2)c1` (configuration not stated), the Kd in test [2] is > 10000 nM.

Molecule `NS(=O)(=O)Cc1cccc(Nc2ncnc(N3CCc4ccccc43)n2)c1` had a Kd in test [1] of 100 to 1000 nM.

With `NS(=O)(=O)Cc1cccc(Nc2ncnc(N3CCC[C@@H]3CO)n2)c1`, in test [1], the Kd was > 10000 nM.

As to `NS(=O)(=O)Cc1cccc(Nc2ncnc(N3CCC[C@@H]3CN3CCCC3)n2)c1`, the Kd in test [1] was > 10000 nM.

For `NS(=O)(=O)Cc1cccc(Nc2ncnc(N3CCc4ncccc4C3)n2)c1`, the dissociation constant Kd in test [1] and in test [2] was 100 to 1000 nM each time.
